Measurements as given in paper PMC8205030, “Methoxy and bromo scans on N-(5-methoxyphenyl) methoxybenzenesulphonamides reveal potent cytotoxic compounds, especially against the human breast adenocarcinoma MCF7 cell line” (Journal of Enzyme Inhibition and Medicinal Chemistry, 2021).
pIC50: −log10 of the molar value. Converted amounts (≈) assume the structure as drawn.

Tested on: HT-29 (human colon carcinoma) cells
Experiment: Cell growth assay (XTT), HT-29, alone or with verapamil
Type: cell-based
Conditions: Homo sapiens, HT-29; 72 h drug exposure, XTT; read-out: Antiproliferative activity IC50 HT-29
Method: The presence of mycoplasma was routinely checked with MycoAlert kit (Lonza-Cambrex) and only mycoplasma-free cells were used in the experiments. Tumour cell lines were kindly provided by Dr Faustino Mollinedo from Centro de Investigaciones Biológicas Margarita Salas, Madrid, Spain. To determine cell growth, cells in exponential growth phase were seeded (100 µL/well in 96-well plates) with appropriate cell concentration (1.5 × 10^4 cells/mL for MCF7, HeLa and HEK-293 and 3 × 10^4 cells/mL for HT-29) in complete DMEM or RPMI 1640 medium (see above) at 37 °C and 5% CO2 atmosphere. After 24 h incubation, to allow cells to attach to the plates, all compounds were added at 1 µM concentration (10 µL/well in 96-well plates) and the effect on the proliferation was evaluated 72 h post-treatment. […] Nonlinear curves fitting the experimental data were carried out for each compound. […] A freshly prepared mixture solution of XTT labelling reagent with 0.02% (v/v) PMS (N-methyl-dibenzopyrazine methyl sulfate) electron coupling reagent was added to cells (50 µL/well in 96-well plates, the total volume of 160 µL/well) and were incubated during the corresponding time according to each cell line (4 h for MCF7 and HeLa and 6 h for HT-29 and HEK-293) in a humidified atmosphere (37 °C, 5% CO2). The absorbance of the formazan product generated was measured at a test wavelength of 450 nm using a multi-well plate reader (Ultra Evolution, Tecan, Männedorf, Suiza). Compounds were dissolved in DMSO and the final solvent concentrations never exceeded 0.5% (v/v). The control wells included treated cells with 0.5% (v/v) DMSO and the positive control. 10 µM verapamil was included as a control for the HT-29 cell line. Measurements were performed in triplicate, and each experiment was repeated three times.

SMILES	pIC50
COc1ccc(S(=O)(=O)N(C)c2ccc(OC)c(OC)c2)cc1 [Compound 12, N-(3,4-dimethoxyphenyl)-4-methoxy-N-methylbenzenesulphonamide]	< 6.00
COc1ccc(S(=O)(=O)Nc2cc(OC)c(OC)cc2Br)cc1 [Compound 13, N-(2-bromo-4,5-dimethoxyphenyl)-4-methoxybenzenesulphonamide]	6.27
COc1ccc(S(=O)(=O)N(C)c2cc(OC)c(OC)cc2Br)cc1 [Compound 14, N-(2-bromo-4,5-dimethoxyphenyl)-4-methoxy-N-methylbenzenesulphonamide]	6.04
CCOC(=O)CN(c1cc(OC)c(OC)cc1Br)S(=O)(=O)c1ccc(OC)cc1 [Compound 17, Ethyl N-(2-bromo-4,5-dimethoxyphenyl)-N-((4-methoxyphenyl)sulphonyl)glycinate]	< 6.00
COc1ccc(S(=O)(=O)N(Cc2ccccc2)c2cc(OC)c(OC)cc2Br)cc1 [Compound 18, N-benzyl-N-(2-bromo-4,5-dimethoxyphenyl)-4-methoxybenzenesulphonamide]	< 6.00
COc1ccc(S(=O)(=O)N(CC(=O)O)c2cc(OC)c(Br)cc2OC)cc1 [Compound 29, N-(4-bromo-2,5-dimethoxyphenyl)-N-((4-methoxyphenyl)sulphonyl)glycine]	< 6.00
CCOC(=O)CN(c1cc(OC)c(OC)cc1OC)S(=O)(=O)c1ccc(OC)cc1 [Compound 36, Ethyl N-((4-methoxyphenyl)sulphonyl)-N-(2,4,5-trimethoxyphenyl)glycinate]	< 6.00

Target: T1, microtubular protein isolated from calf brain (Bos taurus, UniProt P81947+Q6B856)
T1 construct: isolated from calf brain according to the modified Shelanski method; from tissue; host or cells: calf brain
T1 sequence (Q6B856 whole entry): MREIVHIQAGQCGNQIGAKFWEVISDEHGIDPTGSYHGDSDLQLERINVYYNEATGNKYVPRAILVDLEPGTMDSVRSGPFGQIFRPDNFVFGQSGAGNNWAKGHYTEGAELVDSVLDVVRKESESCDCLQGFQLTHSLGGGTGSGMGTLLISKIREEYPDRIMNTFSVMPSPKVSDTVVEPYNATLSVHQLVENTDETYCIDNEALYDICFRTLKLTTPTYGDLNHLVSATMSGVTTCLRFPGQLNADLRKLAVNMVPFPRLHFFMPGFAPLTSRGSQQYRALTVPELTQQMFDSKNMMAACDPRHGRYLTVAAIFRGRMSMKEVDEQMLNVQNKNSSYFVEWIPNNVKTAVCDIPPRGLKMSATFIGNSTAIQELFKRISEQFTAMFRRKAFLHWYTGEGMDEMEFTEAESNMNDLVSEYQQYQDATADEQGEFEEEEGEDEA
T1 sequence (P81947 whole entry): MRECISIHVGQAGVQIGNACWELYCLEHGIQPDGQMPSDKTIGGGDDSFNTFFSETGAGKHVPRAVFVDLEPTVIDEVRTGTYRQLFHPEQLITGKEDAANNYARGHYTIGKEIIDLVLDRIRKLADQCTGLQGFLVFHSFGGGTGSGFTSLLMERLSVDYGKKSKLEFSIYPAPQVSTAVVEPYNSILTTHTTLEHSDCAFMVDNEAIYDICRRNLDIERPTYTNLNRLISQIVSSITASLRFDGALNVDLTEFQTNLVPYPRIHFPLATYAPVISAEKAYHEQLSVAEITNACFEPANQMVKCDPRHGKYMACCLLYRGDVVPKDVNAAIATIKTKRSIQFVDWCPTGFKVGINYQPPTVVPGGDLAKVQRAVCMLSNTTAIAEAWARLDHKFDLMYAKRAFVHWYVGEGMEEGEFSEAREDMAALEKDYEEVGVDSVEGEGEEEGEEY
Experiment: Inhibition of tubulin polymerisation (turbidity)
Type: biochemical
Conditions: 10 µM compound, 1.5 mg/mL microtubular protein
Method: Microtubular protein was isolated from calf brain according to the modified Shelanski method[23]^,[24] by two cycles of temperature-dependent assembly/disassembly and stored at −80 °C. Before each use, protein concentration is determined by Bradford method[25] taking BSA as standard. Tubulin polymerisation was monitored using a Helios α spectrophotometer by measuring the increase in turbidity at 450 nm, caused by a shift from 4 °C to 37 °C, which allows the in vitro microtubular protein to depolymerise and to polymerise, respectively. The assay was carried out in quartz cuvettes containing 1.5 mg/mL microtubular protein and the ligand (except for control cuvette with only DMSO at the same concentration) in a mixture of 0.1 M MES buffer, 1 mM EGTA, 1 mM MgCl2, 1 mM β-ME, and 1.5 mM GTP at pH 6.7 (final volume 500 µL). Cuvettes were preincubated at 20 °C for 30 min, to allow ligand binding to tubulin, and subsequently cooled on ice for 10 min. Then, the experiment starts at 4 °C to establish the initial baseline. The assembly process was initiated by a temperature shift to 37 °C and the turbidity produced by tubulin polymerisation can be measured by an absorbance increase. After reaching a stable plateau, the temperature was switched back to 4 °C to return to the initial absorption values (to confirm the reversible nature of the monitored process and to determine whether or not the microtubular protein has stabilized). The difference in amplitude between the stable plateau and the initial baseline of the curves was taken as the degree of tubulin polymerisation for each experiment. […] All compounds were tested at 10 µM concentration. IC50 values were calculated for compounds that inhibit tubulin polymerisation more than 50% at 10 µM. […] All the measurements were carried out in at least two independent experiments using microtubular protein from different preparations.

SMILES	TPI % 10 µM
COc1ccc(S(=O)(=O)N(C)c2ccc(OC)c(OC)c2)cc1 [Compound 12, N-(3,4-dimethoxyphenyl)-4-methoxy-N-methylbenzenesulphonamide]	0%
COc1ccc(S(=O)(=O)Nc2cc(OC)c(OC)cc2Br)cc1 [Compound 13, N-(2-bromo-4,5-dimethoxyphenyl)-4-methoxybenzenesulphonamide]	0%
COc1ccc(S(=O)(=O)N(C)c2cc(OC)c(OC)cc2Br)cc1 [Compound 14, N-(2-bromo-4,5-dimethoxyphenyl)-4-methoxy-N-methylbenzenesulphonamide]	0%
CCOC(=O)CN(c1cc(OC)c(OC)cc1Br)S(=O)(=O)c1ccc(OC)cc1 [Compound 17, Ethyl N-(2-bromo-4,5-dimethoxyphenyl)-N-((4-methoxyphenyl)sulphonyl)glycinate]	0%
COc1ccc(S(=O)(=O)N(Cc2ccccc2)c2cc(OC)c(OC)cc2Br)cc1 [Compound 18, N-benzyl-N-(2-bromo-4,5-dimethoxyphenyl)-4-methoxybenzenesulphonamide]	38%
COc1ccc(S(=O)(=O)N(CC(=O)O)c2cc(OC)c(Br)cc2OC)cc1 [Compound 29, N-(4-bromo-2,5-dimethoxyphenyl)-N-((4-methoxyphenyl)sulphonyl)glycine]	8%
CCOC(=O)CN(c1cc(OC)c(OC)cc1OC)S(=O)(=O)c1ccc(OC)cc1 [Compound 36, Ethyl N-((4-methoxyphenyl)sulphonyl)-N-(2,4,5-trimethoxyphenyl)glycinate]	0%

Same assay, conditions: in vitro tubulin polymerisation inhibition; read-out: TPI IC50

SMILES	pIC50
COc1ccc(S(=O)(=O)N(C)c2ccc(OC)c(OC)c2)cc1 [Compound 12, N-(3,4-dimethoxyphenyl)-4-methoxy-N-methylbenzenesulphonamide]	< 5.00
COc1ccc(S(=O)(=O)Nc2cc(OC)c(OC)cc2Br)cc1 [Compound 13, N-(2-bromo-4,5-dimethoxyphenyl)-4-methoxybenzenesulphonamide]	< 5.00
COc1ccc(S(=O)(=O)N(C)c2cc(OC)c(OC)cc2Br)cc1 [Compound 14, N-(2-bromo-4,5-dimethoxyphenyl)-4-methoxy-N-methylbenzenesulphonamide]	< 5.00
CCOC(=O)CN(c1cc(OC)c(OC)cc1Br)S(=O)(=O)c1ccc(OC)cc1 [Compound 17, Ethyl N-(2-bromo-4,5-dimethoxyphenyl)-N-((4-methoxyphenyl)sulphonyl)glycinate]	< 5.00
COc1ccc(S(=O)(=O)N(Cc2ccccc2)c2cc(OC)c(OC)cc2Br)cc1 [Compound 18, N-benzyl-N-(2-bromo-4,5-dimethoxyphenyl)-4-methoxybenzenesulphonamide]	< 5.00
COc1ccc(S(=O)(=O)N(CC(=O)O)c2cc(OC)c(Br)cc2OC)cc1 [Compound 29, N-(4-bromo-2,5-dimethoxyphenyl)-N-((4-methoxyphenyl)sulphonyl)glycine]	< 5.00
CCOC(=O)CN(c1cc(OC)c(OC)cc1OC)S(=O)(=O)c1ccc(OC)cc1 [Compound 36, Ethyl N-((4-methoxyphenyl)sulphonyl)-N-(2,4,5-trimethoxyphenyl)glycinate]	< 5.00

Tested on: not listed separately
Experiment: Aqueous solubility (saturation shake-flask, UV)
Type: physicochemical
Conditions: aqueous buffer, thermodynamic from solid, pH 7.0 phosphate buffer, room temperature
Method: The aqueous solubility was determined in a Helios-α UV-320 Spectrophotometer Thermo-Spectronic, Thermo Fischer Scientific, Waltham, MA, USA) using an approach based on the saturation shake-flask method. 1–2 mg of each selected compound was suspended in 300 µL pH 7.0 buffer and stirred for 48 h at room temperature. The resulting mixture was filtered through a […] filter to discard the insoluble residues. A scan between 270 and 400 nm for the tested compound was performed and three wavelengths of maximum absorbance were selected. Calibration curves were performed at these wavelengths and the concentration in the supernatant was measured by UV absorbance. The final value was given as the average of the three measurements.

SMILES	solubility at 48 h
COc1ccc(S(=O)(=O)N(C)c2ccc(OC)c(OC)c2)cc1 [Compound 12, N-(3,4-dimethoxyphenyl)-4-methoxy-N-methylbenzenesulphonamide]	70 µg/mL (≈ 207 µM)
COc1ccc(S(=O)(=O)Nc2cc(OC)c(OC)cc2Br)cc1 [Compound 13, N-(2-bromo-4,5-dimethoxyphenyl)-4-methoxybenzenesulphonamide]	22 µg/mL (≈ 54.7 µM)
COc1ccc(S(=O)(=O)N(C)c2cc(OC)c(OC)cc2Br)cc1 [Compound 14, N-(2-bromo-4,5-dimethoxyphenyl)-4-methoxy-N-methylbenzenesulphonamide]	61 µg/mL (≈ 147 µM)

Tested on: HeLa (human cervical carcinoma) cells
Experiment: Cell growth assay (XTT), HeLa
Type: cell-based
Conditions: 72 h drug exposure, read-out: Antiproliferative activity IC50 HeLa
Method: (§1) The presence of mycoplasma was routinely checked with MycoAlert kit (Lonza-Cambrex) and only mycoplasma-free cells were used in the experiments. Tumour cell lines were kindly provided by Dr Faustino Mollinedo from Centro de Investigaciones Biológicas Margarita Salas, Madrid, Spain. To determine cell growth, cells in exponential growth phase were seeded (100 µL/well in 96-well plates) with appropriate cell concentration (1.5 × 10^4 cells/mL for MCF7, HeLa and HEK-293 and 3 × 10^4 cells/mL for HT-29) in complete DMEM or RPMI 1640 medium (see above) at 37 °C and 5% CO2 atmosphere. After 24 h incubation, to allow cells to attach to the plates, all compounds were added at 1 µM concentration (10 µL/well in 96-well plates) and the effect on the proliferation was evaluated 72 h post-treatment. Compounds showing antiproliferative effects at tested concentration were selected for IC50 calculation (50% inhibitory concentration compared to the untreated controls) from 10^−5 to 10^−10 M concentration. Nonlinear curves fitting the experimental data were carried out for each compound. […] A freshly prepared mixture solution of XTT labelling reagent with 0.02% (v/v) PMS (N-methyl-dibenzopyrazine methyl sulfate) electron coupling reagent was added to cells (50 µL/well in 96-well plates, the total volume of 160 µL/well) and were incubated during the corresponding time according to each cell line (4 h for MCF7 and HeLa and 6 h for HT-29 and HEK-293) in a humidified atmosphere (37 °C, 5% CO2). The absorbance of the formazan product generated was measured at a test wavelength of 450 nm using a multi-well plate reader (Ultra Evolution, Tecan, Männedorf, Suiza). Compounds were dissolved in DMSO and the final solvent concentrations never exceeded 0.5% (v/v). The control wells included treated cells with 0.5% (v/v) DMSO and the positive control. 10 µM verapamil was included as a control for the HT-29 cell line. Measurements were performed in triplicate, and each experiment was repeated three times.

SMILES	pIC50
COc1ccc(S(=O)(=O)N(C)c2ccc(OC)c(OC)c2)cc1 [Compound 12, N-(3,4-dimethoxyphenyl)-4-methoxy-N-methylbenzenesulphonamide]	< 6.00
COc1ccc(S(=O)(=O)Nc2cc(OC)c(OC)cc2Br)cc1 [Compound 13, N-(2-bromo-4,5-dimethoxyphenyl)-4-methoxybenzenesulphonamide]	6.29
COc1ccc(S(=O)(=O)N(C)c2cc(OC)c(OC)cc2Br)cc1 [Compound 14, N-(2-bromo-4,5-dimethoxyphenyl)-4-methoxy-N-methylbenzenesulphonamide]	6.25
CCOC(=O)CN(c1cc(OC)c(OC)cc1Br)S(=O)(=O)c1ccc(OC)cc1 [Compound 17, Ethyl N-(2-bromo-4,5-dimethoxyphenyl)-N-((4-methoxyphenyl)sulphonyl)glycinate]	< 6.00
COc1ccc(S(=O)(=O)N(Cc2ccccc2)c2cc(OC)c(OC)cc2Br)cc1 [Compound 18, N-benzyl-N-(2-bromo-4,5-dimethoxyphenyl)-4-methoxybenzenesulphonamide]	< 6.00
COc1ccc(S(=O)(=O)N(CC(=O)O)c2cc(OC)c(Br)cc2OC)cc1 [Compound 29, N-(4-bromo-2,5-dimethoxyphenyl)-N-((4-methoxyphenyl)sulphonyl)glycine]	< 6.00
CCOC(=O)CN(c1cc(OC)c(OC)cc1OC)S(=O)(=O)c1ccc(OC)cc1 [Compound 36, Ethyl N-((4-methoxyphenyl)sulphonyl)-N-(2,4,5-trimethoxyphenyl)glycinate]	< 6.00

Tested on: MCF7 (human breast carcinoma) cells
Experiment: Cell growth assay (XTT), MCF7
Type: cell-based
Conditions: Homo sapiens, MCF7; 72 h drug exposure, XTT; read-out: Antiproliferative activity IC50 MCF7
Method: as §1

SMILES	pIC50
COc1ccc(S(=O)(=O)N(C)c2ccc(OC)c(OC)c2)cc1 [Compound 12, N-(3,4-dimethoxyphenyl)-4-methoxy-N-methylbenzenesulphonamide]	< 6.00
CCOC(=O)CN(c1cc(OC)c(OC)cc1Br)S(=O)(=O)c1ccc(OC)cc1 [Compound 17, Ethyl N-(2-bromo-4,5-dimethoxyphenyl)-N-((4-methoxyphenyl)sulphonyl)glycinate]	< 6.00
COc1ccc(S(=O)(=O)N(Cc2ccccc2)c2cc(OC)c(OC)cc2Br)cc1 [Compound 18, N-benzyl-N-(2-bromo-4,5-dimethoxyphenyl)-4-methoxybenzenesulphonamide]	< 6.00
COc1ccc(S(=O)(=O)N(CC(=O)O)c2cc(OC)c(Br)cc2OC)cc1 [Compound 29, N-(4-bromo-2,5-dimethoxyphenyl)-N-((4-methoxyphenyl)sulphonyl)glycine]	< 6.00
CCOC(=O)CN(c1cc(OC)c(OC)cc1OC)S(=O)(=O)c1ccc(OC)cc1 [Compound 36, Ethyl N-((4-methoxyphenyl)sulphonyl)-N-(2,4,5-trimethoxyphenyl)glycinate]	< 6.00

Tested on: not given
Experiment: not given
Conditions: not given

SMILES	melting point
COc1ccc(S(=O)(=O)Nc2cc(OC)c(OC)cc2Br)cc1 [Compound 13, N-(2-bromo-4,5-dimethoxyphenyl)-4-methoxybenzenesulphonamide]	162 to 167 °C
COc1ccc(S(=O)(=O)N(C)c2cc(OC)c(OC)cc2Br)cc1 [Compound 14, N-(2-bromo-4,5-dimethoxyphenyl)-4-methoxy-N-methylbenzenesulphonamide]	136 to 141 °C
CCOC(=O)CN(c1cc(OC)c(OC)cc1Br)S(=O)(=O)c1ccc(OC)cc1 [Compound 17, Ethyl N-(2-bromo-4,5-dimethoxyphenyl)-N-((4-methoxyphenyl)sulphonyl)glycinate]	116 to 126 °C
COc1ccc(S(=O)(=O)N(Cc2ccccc2)c2cc(OC)c(OC)cc2Br)cc1 [Compound 18, N-benzyl-N-(2-bromo-4,5-dimethoxyphenyl)-4-methoxybenzenesulphonamide]	114 to 120 °C
COc1ccc(S(=O)(=O)N(CC(=O)O)c2cc(OC)c(Br)cc2OC)cc1 [Compound 29, N-(4-bromo-2,5-dimethoxyphenyl)-N-((4-methoxyphenyl)sulphonyl)glycine]	180 to 184 °C
CCOC(=O)CN(c1cc(OC)c(OC)cc1OC)S(=O)(=O)c1ccc(OC)cc1 [Compound 36, Ethyl N-((4-methoxyphenyl)sulphonyl)-N-(2,4,5-trimethoxyphenyl)glycinate]	127 to 132 °C
